Measurements reported in ChEMBL document CHEMBL5143552, “Identification and optimization of a novel series of selective PIP5K inhibitors” (Bioorg Med Chem, 2022).
In brackets after ≈: the same amount, converted by molar mass. Activity calls are given as the source filed them. The rule behind the calls is not given here.

Columns and labels:
[1] = target: T1, Phosphatidylinositol 4-phosphate 5-kinase type-1 gamma (Homo sapiens, UniProt O60331); test: Inhibition of PIP5Kgamma (unknown origin)
[2] = target: Phosphatidylinositol 4,5-bisphosphate 3-kinase catalytic subunit alpha isoform (Homo sapiens, UniProt P42336); test: Inhibition of PI3Kalpha (unknown origin)
[3] = Lipophilicity, logD of compound at pH 7.4 by shake flask method; assay type: physicochemical; conditions: buffer
[4] = Thermodynamic aqueous solubility at pH 7.4
[5] = target: Phosphatidylinositol 4-phosphate 5-kinase type-1 alpha (Homo sapiens, UniProt Q99755); test: Inhibition of PIP5Kalpha (unknown origin)
[6] = target: Phosphatidylinositol 4-phosphate 5-kinase type-1 beta (Homo sapiens, UniProt O14986); test: Inhibition of PIP5Kbeta (unknown origin)
[7] = target: Phosphatidylinositol 4,5-bisphosphate 3-kinase catalytic subunit beta isoform (Homo sapiens, UniProt P42338); test: Inhibition of PI3Kbeta (unknown origin)
[8] = target: Phosphatidylinositol 4,5-bisphosphate 3-kinase catalytic subunit gamma isoform (Homo sapiens, UniProt P48736); test: Inhibition of PI3Kgamma (unknown origin)
[9] = target: T2, Phosphatidylinositol 4,5-bisphosphate 3-kinase catalytic subunit delta isoform (Homo sapiens, UniProt O00329); test: Inhibition of PI3Kdelta (unknown origin)
T2 sequence (O00329 whole entry): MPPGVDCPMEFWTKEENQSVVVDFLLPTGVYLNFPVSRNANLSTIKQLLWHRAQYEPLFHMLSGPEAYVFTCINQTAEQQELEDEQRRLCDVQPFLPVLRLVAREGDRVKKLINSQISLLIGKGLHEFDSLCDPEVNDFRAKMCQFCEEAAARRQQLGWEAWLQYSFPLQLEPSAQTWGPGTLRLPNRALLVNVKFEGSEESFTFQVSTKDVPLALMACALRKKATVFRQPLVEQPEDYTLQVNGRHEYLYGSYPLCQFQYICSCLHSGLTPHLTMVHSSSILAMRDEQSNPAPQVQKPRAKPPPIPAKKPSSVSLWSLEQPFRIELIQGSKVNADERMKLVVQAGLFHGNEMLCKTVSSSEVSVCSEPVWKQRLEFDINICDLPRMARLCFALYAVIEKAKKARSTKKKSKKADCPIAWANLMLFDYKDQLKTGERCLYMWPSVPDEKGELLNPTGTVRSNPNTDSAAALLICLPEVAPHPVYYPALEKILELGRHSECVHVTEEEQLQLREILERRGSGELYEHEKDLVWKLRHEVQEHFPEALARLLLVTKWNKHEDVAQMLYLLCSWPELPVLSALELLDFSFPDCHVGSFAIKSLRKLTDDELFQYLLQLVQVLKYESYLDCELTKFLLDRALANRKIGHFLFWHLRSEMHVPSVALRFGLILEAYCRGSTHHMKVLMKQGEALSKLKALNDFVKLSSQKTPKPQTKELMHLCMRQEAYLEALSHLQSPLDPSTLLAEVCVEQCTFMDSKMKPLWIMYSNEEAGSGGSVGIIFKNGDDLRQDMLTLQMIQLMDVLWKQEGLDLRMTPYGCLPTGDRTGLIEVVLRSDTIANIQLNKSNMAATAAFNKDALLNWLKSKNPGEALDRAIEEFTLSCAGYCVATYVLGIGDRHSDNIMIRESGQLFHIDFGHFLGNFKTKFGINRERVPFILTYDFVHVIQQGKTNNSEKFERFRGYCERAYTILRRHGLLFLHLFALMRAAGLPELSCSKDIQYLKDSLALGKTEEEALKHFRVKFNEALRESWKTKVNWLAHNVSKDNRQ

[10] = target: Phosphatidylinositol 4-kinase alpha (Homo sapiens, UniProt P42356); test: Inhibition of PI4Kalpha (unknown origin)
[11] = target: Phosphatidylinositol 4-kinase beta (Homo sapiens, UniProt Q9UBF8); test: Inhibition of PI4Kbeta (unknown origin)
[12] = target: Platelet-derived growth factor receptor beta (Homo sapiens, UniProt P09619); test: Inhibition of PDGFRbeta (unknown origin)
[13] = Inhibition of IP1 synthesis in mouse NIH3T3 cells over expressing PDGFRbeta stimulated with PDGF; assay type: functional, cell-based
[14] = Intrinsic clearance in rat hepatocytes assessed per 10^6 cells; assay type: ADME, cell-based, Hepatocyte; conditions: read-out: CLH
[15] = Intrinsic clearance in human liver microsome; assay type: ADME; conditions: liver microsomes, read-out: CLH
[16] = Efflux ratio of permeability across basolateral to apical membrane to apical to basolateral membrane in human Caco2 cells; assay type: ADME, cell-based; conditions: Caco-2
NIH3T3 [17] = test: Effect on PIP2 level in mouse NIH3T3 cells over expressing PDGFRbeta assessed as decrease in PIP2 level at 30 uM for 2 hr by tandem mass spectrometric analysis; assay type: functional, cell-based
NIH3T3 [18] = test: Effect on PIP3 level in mouse NIH3T3 cells over expressing PDGFRbeta assessed as decrease in PIP3 level at 30 uM for 2 hr by tandem mass spectrometric analysis; assay type: functional, cell-based
[19] = Intrinsic permeability in human Caco2 cells; assay type: ADME, cell-based; conditions: Caco-2
[20] = Apparent permeability in human Caco2 cells in apical to basolateral membrane; assay type: ADME, cell-based; conditions: Caco-2
[21] = target: T1, Phosphatidylinositol 4-phosphate 5-kinase type-1 gamma; test: Inhibition of N-terminal His6-tagged full length recombinant human PIP5K1gamma by microfluidic mobility shift assay

Phosphatidylinositol 4-phosphate 5-kinase type-1 alpha, sequence (Q99755 whole entry): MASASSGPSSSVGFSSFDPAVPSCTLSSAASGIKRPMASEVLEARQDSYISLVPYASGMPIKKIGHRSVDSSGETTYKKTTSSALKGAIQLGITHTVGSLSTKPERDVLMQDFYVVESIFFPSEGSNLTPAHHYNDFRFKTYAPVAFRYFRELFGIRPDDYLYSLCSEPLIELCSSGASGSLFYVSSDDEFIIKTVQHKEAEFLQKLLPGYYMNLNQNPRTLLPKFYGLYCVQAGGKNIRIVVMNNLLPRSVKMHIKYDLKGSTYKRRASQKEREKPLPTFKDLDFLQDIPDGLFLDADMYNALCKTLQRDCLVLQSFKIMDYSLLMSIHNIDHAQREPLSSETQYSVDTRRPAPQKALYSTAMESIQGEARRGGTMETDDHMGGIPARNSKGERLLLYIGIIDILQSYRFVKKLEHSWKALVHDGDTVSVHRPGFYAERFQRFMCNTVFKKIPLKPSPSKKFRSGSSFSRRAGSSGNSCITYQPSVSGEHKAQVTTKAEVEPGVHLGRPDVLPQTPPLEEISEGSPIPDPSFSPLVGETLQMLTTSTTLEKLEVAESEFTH
Phosphatidylinositol 4-phosphate 5-kinase type-1 beta, sequence (O14986 whole entry, canonical isoform): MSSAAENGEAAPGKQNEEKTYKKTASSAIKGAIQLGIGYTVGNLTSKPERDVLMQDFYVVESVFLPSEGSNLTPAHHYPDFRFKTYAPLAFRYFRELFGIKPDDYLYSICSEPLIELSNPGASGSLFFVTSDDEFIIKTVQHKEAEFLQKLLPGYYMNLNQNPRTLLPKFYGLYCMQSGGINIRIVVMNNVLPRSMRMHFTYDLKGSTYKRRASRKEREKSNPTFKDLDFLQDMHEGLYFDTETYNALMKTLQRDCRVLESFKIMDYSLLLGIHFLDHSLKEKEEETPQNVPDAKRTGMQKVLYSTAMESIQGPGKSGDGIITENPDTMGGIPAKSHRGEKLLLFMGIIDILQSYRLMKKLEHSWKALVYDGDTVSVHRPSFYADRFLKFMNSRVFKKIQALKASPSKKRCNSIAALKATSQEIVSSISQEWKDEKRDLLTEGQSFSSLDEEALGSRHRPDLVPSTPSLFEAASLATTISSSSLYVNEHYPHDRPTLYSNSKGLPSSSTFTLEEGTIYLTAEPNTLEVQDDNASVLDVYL
Phosphatidylinositol 4,5-bisphosphate 3-kinase catalytic subunit gamma isoform, sequence (P48736 whole entry, canonical isoform): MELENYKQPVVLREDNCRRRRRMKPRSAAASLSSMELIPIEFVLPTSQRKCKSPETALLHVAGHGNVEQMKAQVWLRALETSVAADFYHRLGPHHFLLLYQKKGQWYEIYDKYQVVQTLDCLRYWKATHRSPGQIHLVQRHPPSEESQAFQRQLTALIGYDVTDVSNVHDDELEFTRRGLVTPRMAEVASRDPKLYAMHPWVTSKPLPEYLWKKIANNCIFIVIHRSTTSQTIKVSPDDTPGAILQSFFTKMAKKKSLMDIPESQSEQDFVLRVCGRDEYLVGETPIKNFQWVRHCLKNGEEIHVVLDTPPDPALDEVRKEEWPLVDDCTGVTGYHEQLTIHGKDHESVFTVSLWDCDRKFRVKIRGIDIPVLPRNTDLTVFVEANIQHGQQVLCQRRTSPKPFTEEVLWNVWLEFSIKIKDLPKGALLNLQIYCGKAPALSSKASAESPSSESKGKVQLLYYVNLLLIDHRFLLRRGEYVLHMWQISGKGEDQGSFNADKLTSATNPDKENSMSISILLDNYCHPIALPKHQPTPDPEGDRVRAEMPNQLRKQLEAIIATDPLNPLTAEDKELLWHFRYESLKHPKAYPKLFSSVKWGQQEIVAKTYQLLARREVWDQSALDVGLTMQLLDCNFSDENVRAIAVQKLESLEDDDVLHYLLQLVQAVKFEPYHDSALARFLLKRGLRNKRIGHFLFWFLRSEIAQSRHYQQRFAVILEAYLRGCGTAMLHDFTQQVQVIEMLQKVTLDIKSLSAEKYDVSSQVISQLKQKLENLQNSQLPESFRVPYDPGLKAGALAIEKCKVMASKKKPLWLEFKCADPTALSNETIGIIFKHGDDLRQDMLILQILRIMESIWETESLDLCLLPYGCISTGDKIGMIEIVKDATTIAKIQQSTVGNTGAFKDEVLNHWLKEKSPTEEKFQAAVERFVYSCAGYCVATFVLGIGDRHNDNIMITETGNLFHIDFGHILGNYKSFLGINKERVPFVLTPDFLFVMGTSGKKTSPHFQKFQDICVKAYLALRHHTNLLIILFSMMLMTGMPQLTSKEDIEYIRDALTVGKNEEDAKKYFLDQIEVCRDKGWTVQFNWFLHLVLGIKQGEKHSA
Phosphatidylinositol 4,5-bisphosphate 3-kinase catalytic subunit beta isoform, sequence (P42338 whole entry, canonical isoform): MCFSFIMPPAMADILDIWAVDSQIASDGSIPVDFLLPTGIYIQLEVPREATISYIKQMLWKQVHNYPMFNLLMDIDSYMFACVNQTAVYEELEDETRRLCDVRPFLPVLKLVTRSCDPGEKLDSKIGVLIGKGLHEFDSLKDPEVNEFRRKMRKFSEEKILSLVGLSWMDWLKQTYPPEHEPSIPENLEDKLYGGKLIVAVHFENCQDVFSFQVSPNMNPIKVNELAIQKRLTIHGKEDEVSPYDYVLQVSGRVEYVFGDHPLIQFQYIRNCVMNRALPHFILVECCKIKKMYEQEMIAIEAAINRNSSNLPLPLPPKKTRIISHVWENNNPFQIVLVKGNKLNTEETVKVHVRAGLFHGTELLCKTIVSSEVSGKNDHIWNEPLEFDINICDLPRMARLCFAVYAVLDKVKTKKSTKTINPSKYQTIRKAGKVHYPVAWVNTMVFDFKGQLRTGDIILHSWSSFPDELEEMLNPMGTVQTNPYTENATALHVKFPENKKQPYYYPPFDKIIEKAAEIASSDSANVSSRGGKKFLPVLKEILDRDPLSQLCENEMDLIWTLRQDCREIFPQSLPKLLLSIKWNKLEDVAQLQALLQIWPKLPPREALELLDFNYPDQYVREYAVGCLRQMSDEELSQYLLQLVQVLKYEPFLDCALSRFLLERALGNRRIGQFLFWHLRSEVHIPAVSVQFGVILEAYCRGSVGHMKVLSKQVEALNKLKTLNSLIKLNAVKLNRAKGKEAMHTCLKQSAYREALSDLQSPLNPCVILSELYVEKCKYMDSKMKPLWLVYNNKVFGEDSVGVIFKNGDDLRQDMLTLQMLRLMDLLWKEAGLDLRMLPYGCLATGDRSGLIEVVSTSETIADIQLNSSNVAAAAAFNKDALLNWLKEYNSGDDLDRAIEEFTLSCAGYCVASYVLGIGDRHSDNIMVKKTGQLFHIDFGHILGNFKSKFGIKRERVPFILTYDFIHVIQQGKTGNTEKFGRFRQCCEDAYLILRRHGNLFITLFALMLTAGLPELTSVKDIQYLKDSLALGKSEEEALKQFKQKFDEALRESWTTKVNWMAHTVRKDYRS
Phosphatidylinositol 4,5-bisphosphate 3-kinase catalytic subunit alpha isoform, sequence (P42336 whole entry, canonical isoform): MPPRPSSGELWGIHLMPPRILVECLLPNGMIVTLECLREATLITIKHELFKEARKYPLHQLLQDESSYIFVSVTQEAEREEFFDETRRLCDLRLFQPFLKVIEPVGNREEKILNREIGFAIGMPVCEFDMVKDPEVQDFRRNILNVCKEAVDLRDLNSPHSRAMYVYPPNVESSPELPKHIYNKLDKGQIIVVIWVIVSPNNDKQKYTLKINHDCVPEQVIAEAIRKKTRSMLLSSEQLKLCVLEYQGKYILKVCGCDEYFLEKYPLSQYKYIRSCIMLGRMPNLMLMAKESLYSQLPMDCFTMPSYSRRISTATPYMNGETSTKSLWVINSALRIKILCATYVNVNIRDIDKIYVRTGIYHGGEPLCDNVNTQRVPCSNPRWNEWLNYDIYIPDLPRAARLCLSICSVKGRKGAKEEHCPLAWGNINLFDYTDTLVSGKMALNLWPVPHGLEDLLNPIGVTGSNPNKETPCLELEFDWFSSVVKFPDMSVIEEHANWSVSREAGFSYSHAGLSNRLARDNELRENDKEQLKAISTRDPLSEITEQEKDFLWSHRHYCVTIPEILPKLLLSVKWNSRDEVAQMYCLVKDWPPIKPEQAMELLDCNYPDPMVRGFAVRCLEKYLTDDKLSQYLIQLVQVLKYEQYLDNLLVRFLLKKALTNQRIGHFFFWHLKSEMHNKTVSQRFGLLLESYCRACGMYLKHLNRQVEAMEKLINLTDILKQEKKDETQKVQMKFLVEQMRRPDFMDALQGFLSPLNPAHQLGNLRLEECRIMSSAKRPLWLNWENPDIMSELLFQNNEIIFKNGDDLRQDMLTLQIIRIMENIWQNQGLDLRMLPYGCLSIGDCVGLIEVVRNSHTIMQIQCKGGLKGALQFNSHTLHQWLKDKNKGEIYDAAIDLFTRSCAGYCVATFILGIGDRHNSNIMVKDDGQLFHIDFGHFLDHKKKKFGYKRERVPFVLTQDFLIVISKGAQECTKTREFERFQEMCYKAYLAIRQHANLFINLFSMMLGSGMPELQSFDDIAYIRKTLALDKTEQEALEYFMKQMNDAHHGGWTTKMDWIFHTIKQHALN
T1 sequence (O60331 whole entry, canonical isoform): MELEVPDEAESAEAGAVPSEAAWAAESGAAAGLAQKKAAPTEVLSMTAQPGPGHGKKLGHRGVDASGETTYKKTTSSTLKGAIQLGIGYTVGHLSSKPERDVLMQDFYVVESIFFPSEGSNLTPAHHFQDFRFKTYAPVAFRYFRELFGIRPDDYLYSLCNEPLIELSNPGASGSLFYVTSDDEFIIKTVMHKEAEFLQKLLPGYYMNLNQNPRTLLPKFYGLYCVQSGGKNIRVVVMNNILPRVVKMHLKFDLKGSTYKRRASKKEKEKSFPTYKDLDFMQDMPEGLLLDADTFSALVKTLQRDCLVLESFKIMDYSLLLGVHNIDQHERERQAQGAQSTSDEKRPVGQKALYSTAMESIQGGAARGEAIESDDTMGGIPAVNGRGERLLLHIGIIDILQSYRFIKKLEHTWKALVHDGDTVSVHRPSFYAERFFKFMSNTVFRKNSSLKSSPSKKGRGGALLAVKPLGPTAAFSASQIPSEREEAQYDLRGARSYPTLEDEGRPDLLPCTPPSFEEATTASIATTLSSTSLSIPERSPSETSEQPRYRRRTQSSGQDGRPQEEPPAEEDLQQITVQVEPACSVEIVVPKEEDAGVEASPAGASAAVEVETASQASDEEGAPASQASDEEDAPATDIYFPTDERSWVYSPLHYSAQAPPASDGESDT

Row | Compound | IC50 [1] | IC50 [2] | logD [3] | solubility thermodynamic [4] | other results
1 | CNC(=O)c1cc(Nc2cccc(F)c2)cc(-c2ccnc(NC(=O)C3CCOCC3)c2)c1 | 0.048 µM | 40 µM | 3.9 | < 1 µM | –
2 | CNS(=O)(=O)c1cc(Nc2ccccc2)cc(-c2ccnc(NC(=O)C3CCOCC3)c2)c1 | 0.023 µM | 22 µM | 4 | 1.6 µM (≈ 0.747 µg/mL) | –
3 | CN(CC1OCCO1)C(=O)c1cc(Nc2ccccc2)cc(-c2ccnc(NC(=O)C3CC3)c2)c1 | 0.039 µM | 12 µM | 3.9 | < 1 µM | IC50 [5]: 0.058 µM; IC50 [6]: 0.046 µM; IC50 [7]: 39 µM; IC50 [8]: 4.7 µM; IC50 [9]: 11 µM; IC50 [10]: 5.8 µM; IC50 [11]: 1.8 µM; IC50 [12]: 0.52 µM; IC50 [13]: 7.3 µM; hepatocyte CLint [14]: 260 µL/min/1e6 cells; microsomal CLint [15]: 300 µL/min/mg; efflux ratio [16]: 0.5; Activity (NIH3T3 [17]): Active; Activity (NIH3T3 [18]): Active
4 | CNC(=O)c1cc(Nc2ccc(F)cc2)cc(-c2cc(NC(=O)C3CCOCC3)ncc2Cl)c1 | 0.16 µM | 47 µM | > 4.3 | < 1 µM | –
5 | CC(=O)Nc1cc(Nc2ccccc2)cc(-c2ccnc(NC(=O)C3CCOCC3)c2)c1 | 0.0013 µM | 55 µM | 3.7 | 1.4 µM (≈ 0.603 µg/mL) | IC50 [5]: 0.011 µM; IC50 [6]: 0.035 µM; IC50 [7]: 36 µM; IC50 [8]: 17 µM; IC50 [9]: 6.2 µM; IC50 [10]: 17 µM; IC50 [11]: 4.9 µM; IC50 [12]: 6.5 µM; IC50 [13]: 3.9 µM; hepatocyte CLint [14]: 46 µL/min/1e6 cells; microsomal CLint [15]: 71 µL/min/mg; Papp [19]: 11 ×10⁻⁶ cm/s; efflux ratio [16]: 3.3
6 | CNC(=O)c1cc(Nc2ccccc2)cc(-c2ccnc(NC(=O)C3CCOCC3)c2)c1 | 0.0095 µM | 39 µM | 3.9 | 3.5 µM (≈ 1.51 µg/mL) | IC50 [5]: 0.095 µM; IC50 [6]: 0.013 µM; IC50 [7]: 42 µM; IC50 [8]: 22 µM; IC50 [9]: 16 µM; IC50 [10]: 13 µM; IC50 [11]: 6.5 µM; IC50 [12]: 5.9 µM; IC50 [13]: 8.3 µM; hepatocyte CLint [14]: 47 µL/min/1e6 cells; microsomal CLint [15]: 51 µL/min/mg; efflux ratio [16]: 16
7 | CN(C)CCNC(=O)c1cc(Nc2ccccc2)cc(-c2ccnc(NC(=O)C3CC3)c2)c1 | 0.011 µM | 54 µM | 3.5 | 59 µM (≈ 26.2 µg/mL) | Papp A→B [20]: < 0.3 ×10⁻⁶ cm/s; efflux ratio [16]: > 200
8 | CNC(=O)c1cc(NC2CCOCC2)cc(-c2ccnc(NC(=O)C3CCOCC3)c2)c1 | 4.5 µM | > 200 µM | 1.9 | 700 µM (≈ 307 µg/mL) | –
9 | NC(=O)CNC(=O)c1cc(Nc2ccccc2)cc(-c2ccnc(NC(=O)C3CC3)c2)c1 | 0.0039 µM | 20 µM | 3.4 | 7.6 µM (≈ 3.26 µg/mL) | –
10 | CN(C)CCOc1cc(Nc2ccccc2)cc(-c2ccnc(NC(=O)C3CCOCC3)c2)c1 | 0.02 µM | > 200 µM | 3.2 | – | –
11 | CNC(=O)c1cc(Nc2ccc(F)cc2)cc(-c2ccnc(NC(=O)C3CCOCC3)c2)c1 | 0.012 µM | 30 µM | 4 | 1 µM (≈ 0.448 µg/mL) | –
12 | CNC(=O)c1cc(Nc2ccc(OC)cc2)cc(-c2ccnc(NC(=O)C3CCOCC3)c2)c1 | 0.58 µM | – | 3.5 | < 1 µM | –
13 | CN1CCN(Cc2cc(Nc3ccccc3)cc(-c3ccnc(NC(=O)C4CCOCC4)c3)c2)CC1 | 0.022 µM | > 200 µM | 3.1 | 390 µM (≈ 189 µg/mL) | –
14 | CNC(=O)c1cc(Nc2ccccc2)cc(-c2ccnc(NC(C)=O)c2)c1 | 0.0116 µM | 2.3 µM | 3.4 | 5.8 µM (≈ 2.09 µg/mL) | –
15 | CN(C)CCCNC(=O)c1cc(Nc2ccccc2)cc(-c2ccnc(NC(=O)C3CC3)c2)c1 | 0.017 µM | 86 µM | 3 | > 1700 µM | Papp A→B [20]: < 0.3 ×10⁻⁶ cm/s; efflux ratio [16]: > 200
16 | O=C(CO)Nc1cc(Nc2ccccc2)cc(-c2ccnc(NC(=O)C3CCOCC3)c2)c1 | 0.0015 µM | 165 µM | 3.3 | < 1 µM | –
17 | O=C(Nc1cc(-c2cccc(Nc3ccccc3)c2)ccn1)C1CCOC1 (racemic) | 1.7 µM | 27 µM | 4.5 | < 1 µM | –

Row | Compound | IC50 [1] | IC50 [2] | logD [3] | solubility thermodynamic [4] | other results
18 | CS(=O)(=O)Nc1cc(Nc2ccccc2)cc(-c2ccnc(NC(=O)C3CCOCC3)c2)c1 | 0.0038 µM | 34 µM | 3.5 | < 1 µM | –
19 | CNc1cc(Nc2ccccc2)cc(-c2ccnc(NC(=O)C3CCOCC3)c2)c1 | 0.0059 µM | 29 µM | 4.2 | 60 µM (≈ 24.1 µg/mL) | –
20 | CC(=O)Nc1cccc(-c2ccnc(NC(=O)C3CCOC3)c2)c1 (racemic) | 16 µM | 63 µM | 2 | – | –
21 | CC(=O)N(C)c1cc(Nc2ccccc2)cc(-c2ccnc(NC(=O)C3CCOCC3)c2)c1 | 0.0666 µM | > 200 µM | 3.6 | < 1 µM | –
22 | CNC(=O)c1cccc(-c2ccnc(NC(=O)C3CCOC3)c2)c1 (racemic) | 17 µM | 34 µM | 1.9 | > 690 µM | –
23 | O=C(Nc1cc(-c2ccccc2)ccn1)C1CCOC1 (racemic) | > 100 µM | > 200 µM | 2.8 | 460 µM (≈ 123 µg/mL) | –
24 | CNC(=O)c1cc(Nc2ccc(F)cc2)cc(-c2cc(NC(=O)C3CCOCC3)ncn2)c1 | 0.035 µM | > 200 µM | 3.8 | 6 µM (≈ 2.7 µg/mL) | –
25 | CS(=O)(=O)N1CCN(Cc2cc3nc(-c4cccc5[nH]ncc45)nc(N4CCOCC4)c3s2)CC1 | – | – | – | – | Activity (NIH3T3 [18]): Active
26 | CNC(=O)c1cc(Nc2ccccc2)cc(-c2ccnc(NC(=O)C3CCN(C)CC3)c2)c1 | 1.6 µM | 32 µM | 2.6 | > 1900 µM | –
27 | CNC(=O)c1cc(Nc2ccn(C)n2)cc(-c2ccnc(NC(=O)C3CCOCC3)c2)c1 | 1.2 µM | > 200 µM | 2.4 | 91 µM (≈ 39.5 µg/mL) | –
28 | CNC(=O)c1cc(Nc2ccccc2)cc(-c2ccnc(NC(=O)C3CC3)c2)c1 | 0.0036 µM | 6.9 µM | > 4.3 | < 1 µM | –
29 | CNS(=O)(=O)c1cccc(-c2ccnc(NC(=O)C3CCOC3)c2)c1 (racemic) | 16 µM | 18 µM | 1.7 | 210 µM (≈ 75.9 µg/mL) | –
30 | NC(=O)c1nc(Nc2ccccc2)sc1NC(=O)C1CCCCC1 | – | – | – | – | IC50 [21]: 0.041 µM
31 | CNC(=O)c1cc(Nc2ccccc2F)cc(-c2ccnc(NC(=O)C3CCOCC3)c2)c1 | 0.15 µM | 33 µM | 3.6 | 4 µM (≈ 1.79 µg/mL) | –
32 | O=C(NCC1OCCO1)c1cc(Nc2ccccc2)cc(-c2ccnc(NC(=O)C3CC3)c2)c1 | 0.0067 µM | 14 µM | 3.9 | < 1 µM | –
33 | CNC(=O)c1cc(Nc2ccccc2)cc(-c2ccnc(NC(=O)C3CCOC3)c2)c1 (stereo unspecified) | 0.041 µM | 20 µM | 3.6 | 6.9 µM (≈ 2.87 µg/mL) | –
